Measured values taken from patent US10087199B2, “Super-resolution imaging compositions and methods using same” (Yale University, priority 2014, dated 2018).

Tests used:
Type in all cases: cell-based
HeLa cells = test: Cell viability / cell- and photo-toxicity under prolonged imaging; conditions: 5 μM
Description: In the experiments described above, the cells were exposed to Cer-TCO/SiR-Tz for minutes, a relatively short time period. To evaluate whether this Golgi labeling strategy would result in cell- or photo-toxicity over prolonged periods (such as hours), HeLa cells were treated with varying concentrations of either Cer-TCO/SiR-Tz or BODIPY® FL C5-ceramide (BODIPY-Cer) (Marks, et al., 2008, Cell Biol. 130:819-832; Pagano, et al., 1991, J. Cell Biol. 113:1267-1279), a commercially available fluorescent dye that labels the Golgi. […]
Hela cells stably expressing GalNAcT2-GFP were cultured on 35 mm glass bottom dishes subsequently labeled with various concentrations of TCO-Cer (0, 1, 2, and 5 μM) and SiR-Tz (0, 1, and 2 μM) following the protocol described elsewhere herein. […] After equilibration for 30 min, phase contrast images were taken at an interval of 20 min and fluorescence images at an interval of 10 min over 400-750 min. […] The number of physically intact cells was counted at each time point. For each condition at least 110 cells were counted/observed in the initial images (n0 (0 μM TCO-Cer, 0 μM SiR-Tz)=123 cells, n0 (2 μM TCO-Cer, 2 μM SiR-Tz)=113 cells, n0 (1 μM TCO-Cer, 1 μM SiR-Tz)=130 cells, n0 (5 μM TCO-Cer, 1 μM SiR-Tz)=120 cells, n0 (5 μM BODIPY-Cer)=123 cells).

HeLa cells (Golgi label) = test: Photostability in sequential 3D spinning disk confocal imaging; conditions: live cells; spinning disk confocal
Description: The relative photostability of Cer-TCO/SiR-Tz to both BODIPY-Cer and the SiR labeled SNAP-tag Golgi protein Rab6 was compared. The latter is the product of reaction between Rab6-SNAP and a benzyl guanine derivative of SiR (SiR-BG) (Lukinavicius, et al., 2013, Nature Chem. 5:132-139) and thus contains the same near-IR dye as SiR-Tz (FIGS. 5A-5B). HeLa cells were treated with Cer-TCO/SiR-Tz or BODIPY-Cer, while Rab6-SNAP-expressing cells were treated with SiR-BG. The cells were then examined in sequential 3D images using spinning disk confocal microscopy; 3D visualization limited fluorescence fluctuations due to axial sample drift. In each case, 3D “stacks” of 22 optical sections were acquired in series up to 500 times in live or fixed cells (FIGS. 5A-5B). In live cells, even under optimal imaging conditions the BODIPY-Cer fluorescent signal decreased by 50% after fewer than 15 stacks. In striking contrast, the fluorescent signal of cells treated with 2 μM Cer-TCO followed by 2 μM SiR-Tz decreased by only 10% after more than 120 3D stacks had been acquired. Consistent with a lower density of Rab6-SNAP protein in the Golgi, the signal from Rab6-SNAP-SiR decayed at an intermediate rate, decreasing by 50% after about 50 3D stacks. […] After 500 3D stacks the fluorescent signal of Cer-SiR decreased 16% whereas that of Rab6-SNAP-SiR decreased by 84%. […]

[1] = tested on: HeLa cells that stably expressed GalNAcT2-GFP; test: FRAP analysis of GalNAcT2-GFP mobility within the Golgi; conditions: recovery over 490 seconds, Cer-TCO alone or 5 μM Cer-TCO and 1 μM SiR-Tz, versus untreated
Description: To further test whether the combination of Cer-TCO and SiRTz affected traffic within the Golgi, HeLa cells that stably expressed the GFP-tagged transmembrane Golgi enzyme GalNAcT2 (Storrie, et al., 1998, J. Cell Biol. 143:1505-1521) were used and its intra-organelle mobility was monitored using fluorescence recovery after photobleaching (FRAP) experiments (FIG. 4A). A small rectangular area of the Golgi (about 2.2 microns wide) was photobleached at 488 nm and the fluorescence recovery was monitored over 490 seconds (FIG. 4B). Both the t1/2 of recovery and mobile fraction were unchanged when the cells were treated with Cer-TCO alone or the combination of 5 μM Cer-TCO and 1 μM SiR-Tz (FIG. 4C). Thus, treatment of cells with Cer-TCO alone or Cer-TCO and SiR-Tz led to no detectable change in the diffusion of GalNAcT2-GFP within the Golgi apparatus.
The stable cell line was cultured on a 35 mm glass bottom dish. In the negative control (no treatment), the medium was replaced by DMEM ph(−). […] The photobleaching of the FRAP experiment was performed with a fluorescence recovery after photobleaching unit of the microscope. […] Quantification was performed with ImageJ. The fluorescence intensity in the unbleached region of the cytosol was subtracted from that in the bleached region of Golgi. […]

[2] = tested on: HeLa cells that stably expressed GalNAcT2-GFP (Golgi); test: Two-step Golgi labeling and colocalization with GalNAcT2-GFP by confocal microscopy
Description: To evaluate whether the Golgi could be selectively imaged using Cer-SiR, HeLa cells that stably expressed a protein fusion composed of GFP and N-acetyl-galactosaminyltransferase 2 (GalNAcT2), a transmembrane protein that localizes to the Golgi with high specificity (Storrie, et al., 1998, J. Cell Biol. 143:1505-1521), were used. These cells were treated with 2 μM Cer-TCO (5 min), maintained at 19.5° C. for 60 min to localize the lipid to the Golgi, treated subsequently with 2 μM SiR-Tz (30 min), and visualized using confocal microscopy (FIG. 2A).
The GalNAcT2-GFP and Cer-SiR signals colocalized with a Pearson's coefficient of 0.50±0.02; the corresponding value for the signals from GalNAcT2-GFP and SiR-Tz was 0.08±0.01 (p<0.0001) (FIG. 10), supporting that Cer-TCO effectively localized to the Golgi and reacted efficiently with SiR-Tz.
Stably or transiently transfected HeLa cells were cultured on 35 mm glass bottom dishes (Mattek). To label with Cer-TCO/SiR-Tz, the cells were incubated in PBS containing 1% casein, 0.2% Pluronic F-127 and 2 or 5 μM TCO-Cer for 5 min at 37° C. After washing three times with DMEM ph(−), the cells were incubated for 1 h at 19.5° C. in DMEM ph(−). During this incubation the dish was sealed with parafilm to protect the cells from the used water bath. Subsequently, the cells were washed three times and PBS containing 1% casein and 2 or 1 μM SiR-Tz, respectively, was added to the dish. The dish was sealed with parafilm again and incubated for 30 min at 19.5° C. After washing three times with DMEM ph(−), the cells were observed under a confocal microscope. Fixed samples were prepared similarly with an additional treatment with 4% PFA for 10 min at room temperature after first temperature block. […]
The Pearson correlation between the SiR and the GFP signal within cells was determined using the correlation measurement tool in Volocity. […] For cells stably expressing GalNAcT2-GFP and treated with SiR-Tz and Cer-TCO 13 samples (cells) were analyzed and for cells only treated with SiR-Tz 8 samples were analyzed. […]

CCCCCCCCCCCCC/C=C/[C@@H](O)[C@H](CO)NC(=O)CCCCC1=[N+]2C(=Cc3c(C)cc(C)n3[B-]2(F)F)C=C1 [BODIPY-Cer, BODIPY® FL C5-ceramide, reference compound]
Time after which cell rounding and de-attachment was induced (HeLa cells): about 6 hours | Number of 3D stacks after which fluorescent signal decreased by 50% (HeLa cells (Golgi label)): < 15 stacks

CCCCCCCCCCCCC/C=C/[C@@H](O)[C@H](CO)NC(=O)CCCCCNC(=O)OC1CC/C=C/CCC1 (stereo partly drawn) [Cer-TCO, (E)-cyclooct-4-en-1-yl (6-(((2S,3R,E)-1,3-dihydroxyoctadec-4-en-2-yl)amino)-6-oxohexyl)carbamate]
Mobile fraction (FRAP) [1]: unchanged

CN(C)c1ccc2c(c1)[Si](C)(C)C1=CC(=[N+](C)C)C=CC1=C2c1cc(C(=O)NCc2ccc(-c3nncnn3)cc2)ccc1C(=O)[O-] [SiR-Tz, 4-((4-(1,2,4,5-tetrazin-3-yl)benzyl)carbamoyl)-2-(7-(dimethylamino)-3-(dimethyliminio)-5,5-dimethyl-3,5-dihydrodibenzo[b,e]silin-10-yl)benzoate]
Pearson's coefficient of colocalization with GalNAcT2-GFP signal ([2]; 2 μM Cer-TCO then 2 μM SiR-Tz, or SiR-Tz only, Golgi area, confocal): 0.08±0.01 | Labeling of cells / Golgi region ([2]; live HeLa GalNAcT2-GFP cells, Cer-TCO followed by SiR-Tz, or SiR-Tz alone): did not label the cells
